Data published in patent publication US20230149338A1, “DIAGNOSIS AND TREATMENT OF ADDICTION” (The Regents of the University of California, priority 2020, published 2023).
“Also recorded” adds a separate entry of the source.

What was measured:
Type in all cases: in vivo, rat
Sprague-Dawley rats [1] = assay: Mechanical nociceptive von Frey test, passive oxycodone injection model
Procedure: (§1) The rats were subjected to microbiome depletion using a cocktail of non-absorbable antibiotics in their drinking water. Control rats were given regular drinking water. […] Withdrawal was precipitated at the end of the injection paradigm with a subcutaneous injection of naloxone (1 mg/kg) in the saline (SAL) group, withdrawal (WD) group, and antibiotic-treated withdrawal (WD+ABX) group. For the intoxication state, the rats were given a saline injection at the same time as the naloxone group. The OXY group included animals that were not treated with antibiotics in the intoxicated state, and the OXY+ABX group included animals that were treated with antibiotics in the intoxicated state. […] The rats were sacrificed and perfused 90 min after the naloxone injection in the WD, WD+ABX, and SAL groups and after 90 min following the saline injection (matched with the naloxone injection time point) in the OXY and OXY+ABX groups. Brains were then cryopreserved and stained for Fos expression.
Mechanical nociception, reflected by hindpaw withdrawal thresholds, was determined by an observer who was blind to the experimental groups using von Frey filaments that ranged from 3.63 to 281.838 g as previously reported (Dixon 1965, Kononoff et al. 2018). A test session began after 10 min of habituation to the testing environment immediately following the subcutaneous injection of naloxone (WD, WD+ABX, and SAL groups) or saline (OXY and OXY+ABX groups). […] The 50% paw withdrawal threshold was determined by the formula Xf+kδ, where Xf is the last von Frey filament applied, k is the Dixon value that corresponded to the response pattern, and […] is the mean difference between stimuli. Once the threshold was determined for the left hindpaw, the same testing procedure was repeated for the right hindpaw after 5 min. Paw withdrawal thresholds were recorded at baseline, during intoxication, and during precipitated withdrawal.

Sprague-Dawley rats [2] = assay: Withdrawal score after naloxone-precipitated withdrawal
Procedure: as §1
To precipitate withdrawal, the rats were subcutaneously injected with naloxone and then placed in a Plexiglas observation chamber.
Withdrawal symptoms were categorized using a scale that was modified from (Gellert et al. 1978) and (Cicero et al. 2002). Graded signs of withdrawal were scored as the following: wet dog shakes (1 or 2 shakes=2; 3 or 4 shakes=3; […] shakes=4) and escape attempts (2-4 attempts=1; 5-9 attempts=2; ≥10 attempts=3). The following behaviors were measured per instance: abnormal posture/writhing, teeth chattering, ptosis (drooping eyelids), diarrhea, profuse salivation, urination, swallowing movements, and chromodacyorrhea (red tears). The total withdrawal score was calculated as the sum of all of the individual withdrawal scores. Immediately after withdrawal testing, all of the rats were returned to standard cages and given unrestricted access to food and water.

microbiome = assay: 16S RNA sequencing of feces: alpha diversity and phyla; conditions: post-treatment
Procedure: (§2) At each time point, approximately two fecal pellets were harvested and put directly into a cryovial, which was placed on powered dry ice. The pellets were then stored at −80° C. until processing for sequencing. At the time of DNA extraction, feces were thawed and extracted with the Qiagen DNeasy powersoil kit. The samples are then amplified by PCR in triplicate and then pooled. The 16S V4 gene was amplified using universal primers ([…]). Each sample was normalized to 240 ng per sample and purified. After purification, the A260/A280 ratio of the final pool was recorded to ensure purity, with a tolerance range of 1.8-2.0. The barcoded amplicons from all of the samples were normalized, pooled to construct the sequencing library, and sequenced using an Illumina MiSeq sequencer. The sequencing primers were the following: […]
(§3) After sequencing, the raw files were prepared, filtered for quality, and demultiplexed. Operational taxonomic units (OTUs) were selected using open-reference OUT picking based on 97% sequence similarity to the Greengenes database. Taxonomy assignment and rarefaction were performed using Qiita with 15,000 reads per sample (Gonzalez et al. 2018). The alpha diversity was measured using both the Shannon diversity index and Chao1 index and compared between baseline and treatment conditions. […]

Bacteroidetes = assay: 16S RNA sequencing of feces: Bacteroidetes abundance
Procedure: as §2, §3

Firmicutes = assay: 16S RNA sequencing of feces: Firmicutes abundance
Procedure: as §2, §3

Fos+ neurons = assay: Fos immunohistochemistry, quantification of Fos+ neuronal ensembles
Procedure: Two hours later, the rats were injected with either saline (OXY and OXY+ABX groups) or 1 mg/kg naloxone (WD, WD+ABX, and SAL groups) to maintain intoxication or precipitate withdrawal, respectively. Brains were collected 90 min after the injection of naloxone or saline to produce both intoxicated and withdrawal groups. The rats were deeply anesthetized and perfused with 100 mL of phosphate-buffered saline (PBS) followed by 100 mL of 4% paraformaldehyde (PFA). Brains were postfixed in 4% PFA overnight and transferred to 30% sucrose in a PBS/0.1% azide solution at 4° C. for 2 days. Brains were frozen in powdered dry ice for 15-30 s and then sectioned coronally at 40 μm thickness throughout the brain using a cryostat. Representative sections were quantified from the following regions at the following coordinates according to the (Paxinos 2007) rat brain atlas: PVT (bregma −3.36), LHb (bregma −3.36), BLA (bregma −3.12), CeA (bregma −3.12), PAG (bregma −5.76), anterior agranular insula bregma (+3.00), BNST (bregma 0.00), and LC (bregma −9.16).
The sections were washed in PBS for 10 min three times and then incubated in 1% H2O2/PBS for 20 min to quench endogenous peroxidase activity. The sections were then rinsed for 10 min three times in PBS and incubated in blocking solution (PBS+0.3% TritonX-100, 1 mg/mL bovine serum albumin, and 5% normal donkey serum) for 1 h. The sections were then incubated for 24 h at room temperature with rabbit monoclonal anti-Fos antibody (Cell Signaling Technologies, catalog no. 2250, RRID: AB_2247211) diluted 1:1000 in PBS/0.5% Tween-20 and 5% normal donkey serum. Following incubation with the primary antibody, the sections were washed for 10 min three times in PBS and incubated for 2 h in undiluted rabbit ImmPress horseradish peroxidase reagent (Vector Laboratories, catalog no. MP-7451, RRID: 2631198).
The sections were then washed in PBS for 10 min three times and then developed for 6 min in Vector peroxidase 3,3′-diaminobenzidine (DAB) substrate (Vector Laboratories, catalog no. SK-4100, RRID: 2336382) enhanced with nickel chloride. Following rinses in PBS for 10 min three times, the sections were mounted on Fisher Super Frost Plus slides, air dried, and coverslipped with PVA-DABCO (Sigma Aldrich, catalog no. 10981). Following coverslipping, images were acquired using a Keyence BZX700 fluorescent microscope and analyzed using Fiji software.
Quantitative analysis to obtain unbiased estimates of the total number of Fos+positive cell bodies was performed using Fiji software with the Analyze Particles module (Schindelin et al. 2012). Slides were imaged on a Keyence BZX700 slide scanner and stitched at 2[…] magnification. Three sections were bilaterally analyzed for each rat and then averaged per animal (counted as n=1). A total of 4-6 animals of each sex per group were analyzed. Cell numbers were normalized to the area of the region of interest.

[3] = oxycodone + naloxone withdrawal vs SAL and OXY groups
[4] = oxycodone + naloxone withdrawal vs SAL group
[5] = withdrawal compared with the control group

COc1ccc2c3c1O[C@H]1C(=O)CC[C@@]4(O)[C@@H](C2)N(C)CC[C@]314 [oxycodone, Oxycodone]
decrease in pain thresholds (Sprague-Dawley rats [1]; WD and WD+ABX groups, naloxone-precipitated withdrawal): 64%
von Frey pain threshold during oxycodone intoxication (Sprague-Dawley rats [1]; oxycodone 2 mg/kg s.c. every 12 h, intoxicated animals vs saline, withdrawal groups and baseline): significantly higher von Frey scores; also recorded: higher pain thresholds
von Frey pain threshold during withdrawal (Sprague-Dawley rats [1]; oxycodone-dependent rats, naloxone 1 mg/kg precipitated withdrawal, vs saline, intoxication, baseline): significantly lower von Frey scores; also recorded: lower pain thresholds
increase in withdrawal signs (Sprague-Dawley rats [2]; WD and WD+ABX groups): 1420%
withdrawal score, intoxicated vs saline animals (Sprague-Dawley rats [2]; oxycodone intoxication): No significant difference in withdrawal scores
total withdrawal score during withdrawal (Sprague-Dawley rats [2]; oxycodone-dependent rats, naloxone-precipitated withdrawal, vs saline and intoxicated animals): significantly higher withdrawal scores
alpha diversity, Chao1 test, OXY vs SAL group (microbiome): no difference in alpha diversity
change in Bacteroidetes after treatment (Bacteroidetes; OXY group or OXY+ABX group compared with the matched SAL group): −19.01%
Bacteroidetes at the phylum level, group comparison (Bacteroidetes; post-treatment, OXY+ABX vs water and OXY groups, OXY vs SAL): No difference in Bacteroidetes
change in Firmicutes after treatment (Firmicutes; OXY group or OXY+ABX group compared with the matched saline group): 38.5%
Firmicutes at the phylum level, group comparison (Firmicutes; post-treatment, OXY+ABX vs SAL and OXY groups, OXY vs SAL): No difference in Firmicutes
number of Fos+ neurons, BLA, WD group (Fos+ neurons; oxycodone + naloxone withdrawal vs OXY and SAL groups): significant decrease in Fos+ neurons compared with the OXY group but no difference from the SAL group
number of Fos+ neurons, BNST, WD group (Fos+ neurons; [3]): significant increase in the number of Fos+ neurons; also recorded: significant decrease in the number of Fos+neurons compared with the WD and WD+ABX groups
number of Fos+ neurons, LHb, WD group (Fos+ neurons; [3]): significant increase in the number of Fos+neurons
number of Fos+ neurons, PAG, WD group (Fos+ neurons; [3]): significant increase in Fos+ neurons
number of Fos+ neurons, PVT, WD group (Fos+ neurons; [3]): significant increase in Fos+ positive neurons; also recorded: significant decrease in the number of Fos+ neurons in the SAL group compared with the WD and WD+ABX groups
number of Fos+ neurons, anterior insula, WD group (Fos+ neurons; [3]): significant increase in the number of Fos+ neurons
number of Fos+ neurons, CeA, WD group (Fos+ neurons; [4]): significant difference between the SAL and WD groups
number of Fos+ neurons, LC, WD group (Fos+ neurons; [4]): significant difference between the SAL group and the WD and WD+ABX groups
increase in the number of Fos+ neurons, LC (Fos+ neurons; [5]): 475%
increase in the number of Fos+ neurons, LHb (Fos+ neurons; [5]): 712%
increase in the number of Fos+ neurons, PVT (Fos+ neurons; [5]): 289%
increase in the number of Fos+ neurons, lateral BNST (Fos+ neurons; withdrawal, antibiotic-treated animals compared with the control group): 1272%
